Where two headings read alike, the source gives them in different places.
Tests used:
[1] = test system: HCV1b reporter replicon pRS-Luc-HCV1bRep; test: Transient HCV1b reporter replicon time course (viral translation vs RNA synthesis); format: cell-based, Hepatitis C virus
Method: (8) RNA transcription and transient replicon assay. The RNA transcripts were synthesized in vitro using ScaI-digested DNAs and the T7 MegaScript transcription kit (Ambion) according to the manufacturer's directions. A transient replicon assay was performed to quantify the compound-mediated inhibition of viral translation (Dears et al., J Virol 79:4599-609 (2005)). RNA transcripts were transfected into Huh-7.5 cells by electroporation, as described previously. See, e.g., Blight et al., J Virol 76:13001-14 (2002). A specific concentration of DBPR110 or the control medium was added to each well, and the cells were assayed to determine the luciferase activity at 4 h and 72 h post-transfection. […] For quantification of the compound-mediated inhibition, the relative luciferase activity derived from the mock-treated cells was set to 100% (Zou et al., Virology 384:242-52 (2009)).
To distinguish inhibition of viral translation from inhibition of RNA synthesis, the reduction rate of reporter gene expression level was monitored as an indicator of the inhibitory activity of DBPR110. […] The luciferase activity was monitored several times over a period of 72 hours posttransfection. […] The luciferase activity was measured at 4, 8, 24, 48, and 72 hours posttransfection.

[2] = test system: genotype 1b HCV replicon with NS5A amino acid substitutions; test: Transient replicon assay, genotype 1b NS5A amino acid substitutions; format: cell-based, Hepatitis C virus; conditions: for EC50 / EC90: Hepatitis C virus
[3] = test system: HCV genotype 2a replicon (JFH1); test: Inhibitory assay for HCV replicons (luciferase), genotype 2a JFH1; format: cell-based, Hepatitis C virus
Method: (2) Cell culture and HCV inhibitors. Huh-7.5 cells and their derivative HCV replicon cell lines were maintained in Dulbecco's modified Eagle's medium (DMEM, Gibco/BRL) that was supplemented with 100 U/mL penicillin-streptomycin (Gibco/BRL), 0.1 mM nonessential amino acid (NEAA, Gibco/BRL) and 10% fetal bovine serum (FBS) heat inactivated at 37° C. in 5% CO2. The HCV replicon cell lines were isolated from colonies as described in Lohman et al., Science 285:110-3 (1999). The culture medium for the replicon cells was additionally supplemented with 0.25 to 0.5 mg/mL of G418, unless specified otherwise. Compound DBPR110 and sofosbuvir were synthesized at the Institute of Biotechnology and Pharmaceutical Research at the National Health Research Institutes in Taiwan. Telaprevir (Lin et al., Antimicrob Agents Chemother, 50:1813-22 (2006)) was purchased from Acme Biosciences (Belmont, Calif.). The compounds were stored at −20° C. as 10 to 500 mM dimethyl sulfoxide (DMSO) stock solutions until the assay. IFN-α was purchased from Calbiochem (La Jolla, Calif.) and stored at −80° C.
(3) Inhibitory assay for HCV replicons. Cells were seeded at 1×10^4 (high-throughput screening assay) or 1×10^5 (regular assay) cells/well in 96- or 12-well plate, respectively, and incubated for 4 h. The medium was then aspirated and replaced with 0.1 (96-well plate) or 1 (12-well plate) mL of complete medium containing a single compound or combinations of compounds in serial concentration(s). The plates with compounds were incubated for 72 h and then assayed for luciferase expression (Promega). The EC50 of each compound was determined independently and used to determine the range of concentrations used for the combination experiments. All data are presented as the means±standard deviations (SD) from three independent experiments. The selectivity index (SI) was calculated as the ratio of the CC50 to the EC50.

[4] = Cytotoxicity assay (MTT); format: cell-based; conditions: human, read-out: CC50
Method: (4) Cytotoxicity assay. The sensitivity of the cell lines to inhibitors was examined using a 3-(4,5-Dimethylthiazol-2-yl)-2,5-diphenyltetrazolium bromide (MTT) assay. Briefly, Huh-7.5 cells were plated at a density of 1×10^5 cells per well in 12-well plates containing 1 mL of culture medium for 4 h. Serial dilutions of the compounds or DMSO (negative control) were added, and the plates were incubated for an additional 72 h. The MTT reagent was then added to each well, and the plates were incubated for 3 h at 37° C. in a humidified 5% CO2 atmosphere before reading at a wavelength of 563 nm using an ELISA plate reader. All data are presented as the means +/−SD from four independent experiments.

[5] = genotype 1b NS5A V153M + M202L + M265V
[6] = genotype 1b NS5A Y93H + V153M + M202L + M265V
[7] = genotype 1b NS5A Y93N + V153M + M202L + M265V
[8] = Hepatitis C virus, JFH1 replicon cell line

O=C(N[C@@H](C(=O)N1CCC[C@H]1c1ncc(-c2ccc(-c3ccc(-c4cnc([C@@H]5CCCN5C(=O)[C@H](NC(=O)C5CC5)c5ccccc5)s4)cc3)cc2)s1)c1ccccc1)C1CC1 [DBPR110]
effect on the Rluc signals ([1]; 4 and 8 hours posttransfection (viral translation)): minimal effect
effect on the Rluc signals ([1]; 24, 48, and 72 hours posttransfection (RNA replication), P<0.001): significantly reduced
EC50 ([2]; genotype 1b NS5A M202L): 0.0021 ± 0.0006 nM
EC90 ([2]; genotype 1b NS5A M202L): 0.005 ± 0.0014 nM
EC50 ([2]; genotype 1b NS5A M265V): 0.002 ± 0.0009 nM
EC90 ([2]; genotype 1b NS5A M265V): 0.0051 ± 0.0017 nM
EC50 ([2]; genotype 1b NS5A P58L): 0.564 ± 0.194 nM
EC90 ([2]; genotype 1b NS5A P58L): 2.73 ± 0.909 nM
EC50 ([2]; genotype 1b NS5A P58S): 0.038 ± 0.014 nM
EC90 ([2]; genotype 1b NS5A P58S): 0.064 ± 0.011 nM
EC50 ([2]; genotype 1b NS5A P58T): 0.243 ± 0.04 nM
EC90 ([2]; genotype 1b NS5A P58T): 1.3 ± 0.219 nM
EC50 ([2]; genotype 1b NS5A Parental): 0.0015 ± 0.0006 nM
EC90 ([2]; genotype 1b NS5A Parental): 0.0042 ± 0.0021 nM
EC50 ([2]; genotype 1b NS5A V153M): 0.0013 ± 0.0005 nM
EC90 ([2]; genotype 1b NS5A V153M): 0.0041 ± 0.0019 nM
EC50 [2, 5]: 0.0011 ± 0.0005 nM
EC90 [2, 5]: 0.0031 ± 0.0011 nM
EC50 ([2]; genotype 1b NS5A Y93C): 0.078 ± 0.04 nM
EC90 ([2]; genotype 1b NS5A Y93C): 0.177 ± 0.062 nM
EC50 ([2]; genotype 1b NS5A Y93H): 1.41 nM
EC90 ([2]; genotype 1b NS5A Y93H): 7.34 nM
EC50 [2, 6]: 8.74 nM
EC90 [2, 6]: 37.7 nM
EC50 ([2]; genotype 1b NS5A Y93N): 3.82 nM
EC90 ([2]; genotype 1b NS5A Y93N): 13.3 nM
EC50 [2, 7]: 27.3 nM
EC90 [2, 7]: 98.9 nM
Fold resistance (EC50) ([2]; genotype 1b NS5A M202L): 1 fold
Fold resistance (EC90) ([2]; genotype 1b NS5A M202L): 1 fold
Fold resistance (EC50) ([2]; genotype 1b NS5A M265V): 1 fold
Fold resistance (EC90) ([2]; genotype 1b NS5A M265V): 1 fold
Fold resistance (EC50) ([2]; genotype 1b NS5A P58L): 376 fold
Fold resistance (EC90) ([2]; genotype 1b NS5A P58L): 650 fold
Fold resistance (EC50) ([2]; genotype 1b NS5A P58S): 25 fold
Fold resistance (EC90) ([2]; genotype 1b NS5A P58S): 15 fold
Fold resistance (EC50) ([2]; genotype 1b NS5A P58T): 162 fold
Fold resistance (EC90) ([2]; genotype 1b NS5A P58T): 310 fold
Fold resistance (EC50) ([2]; genotype 1b NS5A Parental): 1 fold
Fold resistance (EC90) ([2]; genotype 1b NS5A Parental): 1 fold
Fold resistance (EC50) ([2]; genotype 1b NS5A V153M): 1 fold
Fold resistance (EC90) ([2]; genotype 1b NS5A V153M): 1 fold
Fold resistance (EC50) [2, 5]: 1 fold
Fold resistance (EC90) [2, 5]: 1 fold
Fold resistance (EC50) ([2]; genotype 1b NS5A Y93C): 52 fold
Fold resistance (EC90) ([2]; genotype 1b NS5A Y93C): 42 fold
Fold resistance (EC50) ([2]; genotype 1b NS5A Y93H): 939 fold
Fold resistance (EC90) ([2]; genotype 1b NS5A Y93H): 1,747 fold
Fold resistance (EC50) [2, 6]: 5,824 fold
Fold resistance (EC90) [2, 6]: 8,979 fold
Fold resistance (EC50) ([2]; genotype 1b NS5A Y93N): 2,547 fold
Fold resistance (EC90) ([2]; genotype 1b NS5A Y93N): 3,168 fold
Fold resistance (EC90) [2, 7]: 23,550 fold
Selective index ([3]; CC50/EC50, JFH1): >173,130
EC50 [3, 8]: 0.229 nM
EC90 [3, 8]: 0.465 ± 0.0966 nM
CC50 at 72 h ([4]; Genotype 2a, JFH1): > 50000 nM
CC50 at 72 h ([4]; HCV-1b replicon cell lines, single agent): > 50 nM
CC50 at 72 h ([4]; Huh-7.5 cells, Genotype 1b, Con1): > 50000 nM
CC50 at 72 h ([4]; Infectious HCV, Genotype 2a, JFH1): > 50000 nM
